Test results from patent publication US20150307938A1, “METHOD TO IDENTIFY A NOVEL CLASS OF IMMUNOLOGIC ADJUVANTS” (Lancell, L.L.C., priority 2011, published 2015).

System: skin
Assay: Affymetrix microarray of skin, DBP-4 hr and analogs vs. untreated; gene selection by log-2 fold change, Wilcoxon, Kendall tau (Tables 8, 9)
Type: in vivo, mouse

CCCCOC(=O)c1ccccc1C(=O)OCCCC [DBP, dibutylphthalate]
No: Wilcoxon: Diablo (gene Diablo, NM_023232_at, DBP-4 hr vs. untreated) | Wilcoxon: Dmap1 (gene Dmap1, NM_023178_at, DBP-4 hr vs. untreated) | Wilcoxon: Dnajc4 (gene Dnajc4, NM_020566_at, DBP-4 hr vs. untreated) | Wilcoxon: Eid1 (gene Eid1, NM_025613_at, DBP-4 hr vs. untreated) | Wilcoxon: Eif6 (gene Eif6, NM_010579_at, DBP-4 hr vs. untreated) | Wilcoxon: Erlec1 (gene Erlec1, NM_025745_at, DBP-4 hr vs. untreated) | Wilcoxon: Fam134b (gene Fam134b, NM_025459_at, DBP-4 hr vs. untreated) | Wilcoxon: Fbxo25 (gene Fbxo25, NM_025785_at, DBP-4 hr vs. untreated) | Wilcoxon: Fgf13 (gene Fgf13, NM_010200_at, DBP-4 hr vs. untreated) | Wilcoxon: Flt1 (gene Flt1, NM_010228_at, DBP-4 hr vs. untreated) | Wilcoxon: Fmo5 (gene Fmo5, NM_010232_at, DBP-4 hr vs. untreated) | Wilcoxon: Ftsj3 (gene Ftsj3, NM_025310_at, DBP-4 hr vs. untreated) | Wilcoxon: Gcnt2 (gene Gcnt2, NM_023887_at, DBP-4 hr vs. untreated) | Wilcoxon: Gmcl1 (gene Gmcl1, NM_011818_at, DBP-4 hr vs. untreated) | Wilcoxon: Gpn3 (gene Gpn3, NM_024216_at, DBP-4 hr vs. untreated) | Wilcoxon: Gstz1 (gene Gstz1, NM_010363_at, DBP-4 hr vs. untreated) | Wilcoxon: Gtf2h2 (gene Gtf2h2, NM_022011_at, DBP-4 hr vs. untreated) | Wilcoxon: Gtf3a (gene Gtf3a, NM_025652_at, DBP-4 hr vs. untreated) | Wilcoxon: Hsdl2 (gene Hsdl2, NM_024255_at, DBP-4 hr vs. untreated) | Wilcoxon: Icos (gene Icos, NM_017480_at, DBP-4 hr vs. untreated) | Wilcoxon: Ifngr1 (gene Ifngr1, NM_010511_at, DBP-4 hr vs. untreated) | Wilcoxon: Inpp5d (gene Inpp5d, NM_010566_at, DBP-4 hr vs. untreated) | Wilcoxon: Itgax (gene Itgax, NM_021334_at, DBP-4 hr vs. untreated) | Wilcoxon: Itk (gene Itk, NM_010583_at, DBP-4 hr vs. untreated) | Wilcoxon: Krt17 (gene Krt17, NM_010663_at, DBP-4 hr vs. untreated) | Wilcoxon: Map3k14 (gene Map3k14, NM_016896_at, DBP-4 hr vs. untreated) | Wilcoxon: Mdp1 (gene Mdp1, NM_023397_at, DBP-4 hr vs. untreated) | Wilcoxon: Meis1 (gene Meis1, NM_010789_at, DBP-4 hr vs. untreated) | Wilcoxon: Mkrn3 (gene Mkrn3, NM_011746_at, DBP-4 hr vs. untreated) | Wilcoxon: Mtcp1 (gene Mtcp1, NM_010839_at, DBP-4 hr vs. untreated) | Wilcoxon: Mum1 (gene Mum1, NM_023431_at, DBP-4 hr vs. untreated) | Wilcoxon: Myd88 (gene Myd88, NM_010851_at, DBP-4 hr vs. untreated) | Wilcoxon: Nagk (gene Nagk, NM_019542_at, DBP-4 hr vs. untreated) | Wilcoxon: Ndufaf3 (gene Ndufaf3, NM_023247_at, DBP-4 hr vs. untreated) | Wilcoxon: Nek3 (gene Nek3, NM_011848_at, DBP-4 hr vs. untreated) | Wilcoxon: Nfkb2 (gene Nfkb2, NM_019408_at, DBP-4 hr vs. untreated) | Wilcoxon: Nicn1 (gene Nicn1, NM_025449_at, DBP-4 hr vs. untreated) | Wilcoxon: Nme3 (gene Nme3, NM_019730_at, DBP-4 hr vs. untreated) | Wilcoxon: Ntpcr (gene Ntpcr, NM_025636_at, DBP-4 hr vs. untreated) | Wilcoxon: Orc3 (gene Orc3, NM_015824_at, DBP-4 hr vs. untreated) | Wilcoxon: Padi1 (gene Padi1, NM_011059_at, DBP-4 hr vs. untreated) | Wilcoxon: Panx1 (gene Panx1, NM_019482_at, DBP-4 hr vs. untreated) | Wilcoxon: Pfdn2 (gene Pfdn2, NM_011070_at, DBP-4 hr vs. untreated) | Wilcoxon: Phtf1 (gene Phtf1, NM_013629_at, DBP-4 hr vs. untreated)
Yes: Kendall: Dda1 (gene Dda1, NM_025600_at, gene expression vs. output) | Kendall: Diablo (gene Diablo, NM_023232_at, gene expression vs. output) | Kendall: Dmap1 (gene Dmap1, NM_023178_at, gene expression vs. output) | Kendall: Dnajc4 (gene Dnajc4, NM_020566_at, gene expression vs. output) | Kendall: Eid1 (gene Eid1, NM_025613_at, gene expression vs. output) | Kendall: Eif6 (gene Eif6, NM_010579_at, gene expression vs. output) | Kendall: Erlec1 (gene Erlec1, NM_025745_at, gene expression vs. output) | Kendall: Fam134b (gene Fam134b, NM_025459_at, gene expression vs. output) | Kendall: Fbxo25 (gene Fbxo25, NM_025785_at, gene expression vs. output) | Kendall: Fgf13 (gene Fgf13, NM_010200_at, gene expression vs. output) | Kendall: Flt1 (gene Flt1, NM_010228_at, gene expression vs. output) | Kendall: Fmo5 (gene Fmo5, NM_010232_at, gene expression vs. output) | Kendall: Ftsj3 (gene Ftsj3, NM_025310_at, gene expression vs. output) | Kendall: Gcnt2 (gene Gcnt2, NM_023887_at, gene expression vs. output) | Kendall: Gmcl1 (gene Gmcl1, NM_011818_at, gene expression vs. output) | Kendall: Gpn3 (gene Gpn3, NM_024216_at, gene expression vs. output) | Kendall: Gstz1 (gene Gstz1, NM_010363_at, gene expression vs. output) | Kendall: Gtf2h2 (gene Gtf2h2, NM_022011_at, gene expression vs. output) | Kendall: Gtf3a (gene Gtf3a, NM_025652_at, gene expression vs. output) | Kendall: Hsdl2 (gene Hsdl2, NM_024255_at, gene expression vs. output) | Kendall: Icos (gene Icos, NM_017480_at, gene expression vs. output) | Kendall: Ifngr1 (gene Ifngr1, NM_010511_at, gene expression vs. output) | Kendall: Inpp5d (gene Inpp5d, NM_010566_at, gene expression vs. output) | Kendall: Itgax (gene Itgax, NM_021334_at, gene expression vs. output) | Kendall: Itk (gene Itk, NM_010583_at, gene expression vs. output) | Kendall: Krt17 (gene Krt17, NM_010663_at, gene expression vs. output) | Kendall: Map3k14 (gene Map3k14, NM_016896_at, gene expression vs. output) | Kendall: Mdp1 (gene Mdp1, NM_023397_at, gene expression vs. output) | Kendall: Meis1 (gene Meis1, NM_010789_at, gene expression vs. output) | Kendall: Mkrn3 (gene Mkrn3, NM_011746_at, gene expression vs. output) | Kendall: Mtcp1 (gene Mtcp1, NM_010839_at, gene expression vs. output) | Kendall: Mum1 (gene Mum1, NM_023431_at, gene expression vs. output) | Kendall: Myd88 (gene Myd88, NM_010851_at, gene expression vs. output) | Kendall: Nagk (gene Nagk, NM_019542_at, gene expression vs. output) | Kendall: Ndufaf3 (gene Ndufaf3, NM_023247_at, gene expression vs. output) | Kendall: Nek3 (gene Nek3, NM_011848_at, gene expression vs. output) | Kendall: Nfkb2 (gene Nfkb2, NM_019408_at, gene expression vs. output) | Kendall: Nicn1 (gene Nicn1, NM_025449_at, gene expression vs. output) | Kendall: Nme3 (gene Nme3, NM_019730_at, gene expression vs. output) | Kendall: Ntpcr (gene Ntpcr, NM_025636_at, gene expression vs. output) | Kendall: Orc3 (gene Orc3, NM_015824_at, gene expression vs. output) | Kendall: Padi1 (gene Padi1, NM_011059_at, gene expression vs. output) | Kendall: Panx1 (gene Panx1, NM_019482_at, gene expression vs. output) | Kendall: Pfdn2 (gene Pfdn2, NM_011070_at, gene expression vs. output) | Kendall: Phtf1 (gene Phtf1, NM_013629_at, gene expression vs. output)
